For one assay, the system named is 518A2. Nature of the assay: Cytotoxicity against human 518A2 cells after 96 hrs by SRB assay. The format is functional, cell-based. The note with it: 518A2, 96 h.
The subject of assay [1] is A2780. Nature of the assay: Cytotoxicity against human A2780 cells after 96 hrs by SRB assay. The format is functional, cell-based. The note with it: A2780, 96 h.
The subject of a further assay is MCF7. Nature of the assay: Cytotoxicity against human MCF7 cells after 96 hrs by SRB assay. The format is functional, cell-based. The following applies: MCF7, 96 h.
For another assay, the system named is A549. Briefly: Cytotoxicity against human A549 cells after 96 hrs by SRB assay. The format is functional, cell-based. The following applies: A549, 96 h.
In the next assay the test system is NIH3T3. Nature of the assay: Cytotoxicity against mouse NIH/3T3 cells after 96 hrs by SRB assay. The format is cell-based. The note with it: NIH3T3, 96 h. On the technique in general: Sulforhodamine B stains cellular protein and so reports cell mass.
The subject of assay [2] is A2780. Nature of the assay: Cytotoxicity against human A2780 cells assessed as morphological changes at 5 uM after 24 hrs by acridine orange/propidium iodide staining based fluorescence microscopic method. The format is functional, cell-based.
The test system of assay [3] is A2780. Briefly: Induction of apoptosis in human A2780 cells assessed as early apoptotic cells at 5 uM after 24 hrs by Annexin V-FITC/propidium iodide staining based flow cytometry (reference value: 3.5%). The format is functional. (In general: A flow cytometer gives signals particle by particle.)
In assay [4] the test system is A2780. Nature of the assay: Induction of apoptosis in human A2780 cells assessed as late apoptotic cells at 5 uM after 24 hrs by Annexin V-FITC/propidium iodide staining based flow cytometry (reference value: 6.6%). The format is functional.
Assay [5] concerns A2780. Nature of the assay: Induction of apoptosis in human A2780 cells assessed as necrotic cells at 5 uM after 24 hrs by Annexin V-FITC/propidium iodide staining based flow cytometry (reference value: 1.1%). The format is functional.
Assay [6] concerns A2780. Nature of the assay: Induction of apoptosis in human A2780 cells assessed as live cells at 5 uM after 24 hrs by Annexin V-FITC/propidium iodide staining based flow cytometry (reference value: 88.7%). The format is functional.
Assay [7] deals with A2780. Briefly: Cell cycle arrest in human A2780 cells at 5 uM after 24 hrs by propidium iodide staining based flow cytometry. The format is functional.
The test system of assay [8] is A2780. Nature of the assay: Induction of apoptosis in human A2780 cells assessed as increase in caspase-3 activity at 5 uM after 24 hrs by flow cytometry. The format is functional, cell-based.
A further assay concerns HT-29. Nature of the assay: cells. The following applies: Homo sapiens, HT-29, 96 h.
Assay [9] concerns A2780. Nature of the assay: Cytotoxicity against human A2780 cells assessed as morphological changes at 8 uM after 24 hrs by acridine orange/propidium iodide staining based fluorescence microscopic method. The format is functional, cell-based.
The test system of assay [10] is A2780. Nature of the assay: Induction of apoptosis in human A2780 cells assessed as early apoptotic cells at 8 uM after 24 hrs by Annexin V-FITC/propidium iodide staining based flow cytometry (reference value: 3.5%). The format is functional.
Assay [11] relates to A2780. Nature of the assay: Induction of apoptosis in human A2780 cells assessed as late apoptotic cells at 8 uM after 24 hrs by Annexin V-FITC/propidium iodide staining based flow cytometry (reference value: 6.6%). The format is functional.
For assay [12], the system named is A2780. Briefly: Induction of apoptosis in human A2780 cells assessed as necrotic cells at 8 uM after 24 hrs by Annexin V-FITC/propidium iodide staining based flow cytometry (reference value: 1.1%). The format is functional.
In assay [13] the test system is A2780. Briefly: Induction of apoptosis in human A2780 cells assessed as live cells at 8 uM after 24 hrs by Annexin V-FITC/propidium iodide staining based flow cytometry (reference value: 88.7%). The format is functional.
The test system of assay [14] is A2780. Briefly: Cell cycle arrest in human A2780 cells at 8 uM after 24 hrs by propidium iodide staining based flow cytometry. The format is functional.
The test system of assay [15] is A2780. Briefly: Induction of apoptosis in human A2780 cells assessed as increase in caspase-3 activity at 8 uM after 24 hrs by flow cytometry. The format is functional, cell-based.

Results on four compounds are retold here after ChEMBL document CHEMBL4130577, “Platanic acid: A new scaffold for the synthesis of cytotoxic agents” (Eur J Med Chem, 2018).

Active and inactive are the calls of the source. The rule behind the calls is not given here.

Description for HT-29: Cytotoxicity against human HT-29 cells after 96 hrs by SRB assay

As usually defined, the EC50 is the concentration that produces a half-maximal response. A higher EC50 goes with a less potent agent. For the compound `CC(=O)[C@@H]1CC[C@]2(C(=O)NCCN3CCCC3)CC[C@]3(C)[C@H](CC[C@@H]4[C@@]5(C)CC[C@H](O)C(C)(C)[C@@H]5CC[C@]43C)[C@@H]12`, the EC50 in the assay on 518A2 was 2.5 µM; with A2780 [1], 2.2 µM; in the assay on MCF7 it was 2.1 µM; in the assay on A549 it was 2.3 µM; in the assay with NIH3T3, 2.8 µM; in the assay on HT-29, 2.8 µM. Besides, the result with A2780 [2] and with A2780 [8] was Active. Besides, the Activity is 7.1% with A2780 [3], 47.4% with A2780 [4], 4.2% with A2780 [5] and 41.3% with A2780 [6]. The result with A2780 [7] was inactive.
Turning to `COC(=O)[C@]12CC[C@@H]([C@@H](C)N)[C@@H]1[C@H]1CC[C@@H]3[C@@]4(C)CC[C@H](OC(C)=O)C(C)(C)[C@@H]4CC[C@@]3(C)[C@]1(C)CC2`, the concentration for a half-maximal effect (EC50) in the assay with 518A2 worked out at 4.1 µM; in the assay with A2780 [1] it was 4.7 µM; with MCF7, 5.1 µM; in the assay with A549, 5.3 µM; with NIH3T3, 5.6 µM; with HT-29 it was 6.3 µM. The outcome in the assay on A2780 [9] and in the assay on A2780 [15] was Active. Besides, the Activity in the assay with A2780 [10] was 23.7%; in the assay with A2780 [11] it was 16.6%; in the assay on A2780 [12], 1.4%; in the assay with A2780 [13] it was 58.1%. Further, the outcome with A2780 [14] was inactive.
In the case of `CC(=O)[C@@H]1CC[C@]2(C(=O)NCCN(C)C)CC[C@]3(C)[C@H](CC[C@@H]4[C@@]5(C)CC[C@H](O)C(C)(C)[C@@H]5CC[C@]43C)[C@@H]12`, the EC50 came to 3.6 µM with 518A2; 4 µM with A2780 [1]; 3.2 µM with MCF7; 5.1 µM in the assay on A549; 3.5 µM in the assay with NIH3T3; 3.9 µM in the assay on HT-29.
Regarding `CC(=O)O[C@H]1CC[C@]2(C)[C@H]3CC[C@@H]4[C@H]5[C@H](C(C)=O)CC[C@]5(C(=O)NCCN)CC[C@@]4(C)[C@]3(C)CC[C@H]2C1(C)C`, the EC50 in the assay with 518A2 turned out to be 3.2 µM; in the assay on A2780 [1], 3.2 µM; with MCF7, 3.1 µM; in the assay with A549, 3.2 µM; in the assay on NIH3T3, 2.1 µM; with HT-29, 3.3 µM.
